pKd: −log10 of the molar value. Converted amounts (≈) assume the structure as drawn.
Assays:
[1] = target: Hsp90 Nuclear Binding Domain (NBD) (Aspergillus fumigatus, UniProt P40292); test: Surface Plasmon Resonance (SPR) binding, A. fumigatus Hsp90 NBD; settings: biotinylated Hsp90 NBD on streptavidin chip, 25° C., 1:1 binding model; NB undefined
Method in brief: (§1)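 Biacore S200 at 25° C; AviTag-biotinylated recombinant Hsp90 NBD captured on streptavidin chip at 2000-2500 RU. Compound dilution series run in HBS-P pH 7.4 with 2% DMSO at 40 μL/min, 60 s association and 600 s dissociation. Sensorgrams fitted to a 1:1 binding model.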

[2] = test system: HepG2 cells; test: Mammalian cell toxicity (Cell Titer-Glo); format: cell-based
Protocol: Mammalian Cell Toxicity. HepG2 cells were seeded overnight at 500 cells/well in 384-well plate, then incubated with compounds (10-point concentration titration) for 48 h. Cell Titer-Glo® reagent ([…]) was added to each well and after 10-minute incubation at room temperature the luminescent signal was measured using an Envision plate reader (Perkin Elmer).

[3] = test system: CaCl2; test: Antifungal sensitivity testing (broth microdilution MIC); format: cell-based; settings: 96-well broth microdilution
Method in brief: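 Broth microdilution MIC per a modified published protocol; compounds dissolved in DMSO, fluconazole in water; duplicates in at least two independent experiments. Fungicidal activity checked by spotting MIC-plate cultures onto YPD agar, read after 24 h at 30° C.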

[4] = target: Hsp90 Nuclear Binding Domain (NBD) (Candida albicans (strain SC5314 / ATCC MYA-2876) (Yeast), UniProt P46598); test: Surface Plasmon Resonance (SPR) binding, C. albicans Hsp90 NBD; settings: biotinylated Hsp90 NBD on streptavidin chip, 25° C., 1:1 binding model
Sequence of Hsp90 Nuclear Binding Domain (NBD) (Candida albicans (strain SC5314 / ATCC MYA-2876) (Yeast), UniProt P46598) (P46598 1-218 limits assumed): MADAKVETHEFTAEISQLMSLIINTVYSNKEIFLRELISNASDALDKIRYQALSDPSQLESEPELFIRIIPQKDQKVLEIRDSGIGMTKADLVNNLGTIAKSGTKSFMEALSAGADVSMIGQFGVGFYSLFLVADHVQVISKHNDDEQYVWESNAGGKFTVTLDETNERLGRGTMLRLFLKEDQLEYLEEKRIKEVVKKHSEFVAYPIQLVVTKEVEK
Method in brief: as §1

Sequence of Hsp90 Nuclear Binding Domain (NBD) (Aspergillus fumigatus, UniProt P40292) (P40292 whole entry, looked up, the tested form may be a part): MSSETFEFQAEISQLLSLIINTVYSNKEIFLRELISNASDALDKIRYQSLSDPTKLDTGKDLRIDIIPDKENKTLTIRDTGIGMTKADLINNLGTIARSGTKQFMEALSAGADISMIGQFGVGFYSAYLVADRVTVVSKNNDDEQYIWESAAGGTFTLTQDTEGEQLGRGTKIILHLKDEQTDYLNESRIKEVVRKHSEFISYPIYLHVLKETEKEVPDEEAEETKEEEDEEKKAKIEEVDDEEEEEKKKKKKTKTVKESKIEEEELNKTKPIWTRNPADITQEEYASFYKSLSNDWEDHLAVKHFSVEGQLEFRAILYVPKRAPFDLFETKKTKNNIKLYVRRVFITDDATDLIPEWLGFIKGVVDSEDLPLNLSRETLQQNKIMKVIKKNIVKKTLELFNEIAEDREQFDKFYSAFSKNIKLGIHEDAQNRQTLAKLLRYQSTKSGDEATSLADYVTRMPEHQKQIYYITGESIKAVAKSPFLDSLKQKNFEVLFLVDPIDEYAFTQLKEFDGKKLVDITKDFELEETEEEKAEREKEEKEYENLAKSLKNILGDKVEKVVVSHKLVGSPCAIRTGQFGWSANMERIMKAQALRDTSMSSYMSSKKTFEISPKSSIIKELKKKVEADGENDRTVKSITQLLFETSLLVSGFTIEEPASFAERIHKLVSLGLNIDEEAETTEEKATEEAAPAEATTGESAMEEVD

Row | SMILES | pKd [1] | HepG2 MIC50 ([2]; Table 5, 48 h incubation) [µM] | HepG2 MIC50 ([2]; Table 6, 48 h incubation) [µM] | MIC50 ([3]; Table 4) [µM] | MIC50 ([3]; Table 6) [µM] | pKd [4]
1 | Nc1nc2sc(C(=O)NC3CCN(C[C@](O)(Cn4cncn4)c4ccc(F)cc4F)CC3)cc2n(-c2ccc3ccn(-c4ccccc4)c3c2)c1=O [Compound I-23, (S)-3-amino-N-(1-(2-(2,4-difluorophenyl)-2-hydroxy-3-(1H-1,2,4-triazol-1-yl)propyl)piperidin-4-yl)-2-oxo-1-(1-phenyl-1H-indol-6-yl)-1,2-dihydrothieno[2,3-b]pyrazine-6-carboxamide] | 7.34 | >50 | >50 | 0.35 (≈ 0.253 µg/mL) | 0.35 (≈ 0.253 µg/mL) | 7.54
2 | Nc1nc2sc(C(=O)NC[C@H]3CO[C@](Cn4cncn4)(c4ccc(F)cc4F)C3)cc2n(-c2ccc3c(c2)N(c2ccccc2)CCO3)c1=O [Compound I-27, N-(((3S,5S)-5-((1H-1,2,4-triazol-1-yl)methyl)-5-(2,4-difluorophenyl)tetrahydrofuran-3-yl)methyl)-3-amino-2-oxo-1-(4-phenyl-3,4-dihydro-2H-benzo[b][1,4]oxazin-6-yl)-1,2-dihydrothieno[2,3-b]pyrazine-6-carboxamide] | 7.87 |  | >10 | 2.5 (≈ 1.74 µg/mL) | 2.5 (≈ 1.74 µg/mL) | 8.04
3 | CC1(NC(=O)c2cc3c(nc(N)c(=O)n3-c3ccc4c(c3)N(c3ccccc3)CCO4)s2)CCN(CC(O)(Cn2cncn2)c2ccc(F)cc2F)CC1 (stereo not drawn) [Compound I-31, 3-amino-N-(1-(2-(2,4-difluorophenyl)-2-hydroxy-3-(1H-1,2,4-triazol-1-yl)propyl)-4-methylpiperidin-4-yl)-2-oxo-1-(4-phenyl-3,4-dihydro-2H-benzo[b][1,4]oxazin-6-yl)-1,2-dihydrothieno[2,3-b]pyrazine-6-carboxamide] | 8.64 | 4.6 | 4.6 | 1 (≈ 0.754 µg/mL) | 1 (≈ 0.754 µg/mL) | 9.52
4 | Nc1nc2sc(C(=O)NC3CCN(CC4COC(Cn5cncn5)(c5ccc(F)cc5F)C4)CC3)cc2n(-c2ccc3c(c2)N(c2ccccc2)CCO3)c1=O (stereo not drawn) [Compound I-32, N-(1-((5-((1H-1,2,4-triazol-1-yl)methyl)-5-(2,4-difluorophenyl)tetrahydrofuran-3-yl)methyl)piperidin-4-yl)-3-amino-2-oxo-1-(4-phenyl-3,4-dihydro-2H-benzo[b][1,4]oxazin-6-yl)-1,2-dihydrothieno[2,3-b]pyrazine-6-carboxamide] | 7.30 |  | 8.2 | 2.5 (≈ 1.95 µg/mL) | 2.5 (≈ 1.95 µg/mL) | 8.44
5 | Nc1nc2sc(C(=O)N[C@@H]3CCN(CCC(O)(Cn4cncn4)c4ccc(F)cc4F)C3)cc2n(-c2ccc3c(c2)N(c2ccccc2)CCO3)c1=O (stereo partly drawn) [Compound I-36, 3-amino-N-((3R)-1-(3-(2,4-difluorophenyl)-3-hydroxy-4-(1H-1,2,4-triazol-1-yl)butyl)pyrrolidin-3-yl)-2-oxo-1-(4-phenyl-3,4-dihydro-2H-benzo[b][1,4]oxazin-6-yl)-1,2-dihydrothieno[2,3-b]pyrazine-6-carboxamide] | 8.43 |  | 1.9 | 8 (≈ 5.92 µg/mL) | 8 (≈ 5.92 µg/mL) | 8.68
6 | Nc1nc2sc(CNC3CCN(CC(O)(Cn4cncn4)c4ccc(F)cc4F)CC3)cc2n(-c2ccc3c(c2)N(c2ccccc2)CCO3)c1=O (stereo not drawn) [Compound I-47, 3-amino-6-(((1-(2-(2,4-difluorophenyl)-2-hydroxy-3-(1H-1,2,4-triazol-1-yl)propyl)piperidin-4-yl)amino)methyl)-1-(4-phenyl-3,4-dihydro-2H-benzo[b][1,4]oxazin-6-yl)thieno[2,3-b]pyrazin-2(1H)-one] | 6.26 | 4.4 | 4.4 | 1 (≈ 0.726 µg/mL) | 1 (≈ 0.726 µg/mL) | 6.54
7 | CC1(NC(=O)c2cc3c(nc(N)c(=O)n3-c3ccc4c(c3)N(c3ccccc3)CCO4)s2)CCN(C[C@](O)(Cn2cncn2)c2ccc(F)cc2F)CC1 [Compound I-53, (S)-3-amino-N-(1-(2-(2,4-difluorophenyl)-2-hydroxy-3-(1H-1,2,4-triazol-1-yl)propyl)-4-methylpiperidin-4-yl)-2-oxo-1-(4-phenyl-3,4-dihydro-2H-benzo[b][1,4]oxazin-6-yl)-1,2-dihydrothieno[2,3-b]pyrazine-6-carboxamide] | 7.63 | 4 | 4 | 1.5 (≈ 1.13 µg/mL) | 1.5 (≈ 1.13 µg/mL) | 8.89
8 | Nc1nc2sc(-c3noc(C(=O)NN4CCN(CC(O)(Cn5cncn5)c5ccc(F)cc5F)CC4)n3)cc2n(-c2ccc3c(c2)N(c2ccccc2)CCO3)c1=O (stereo not drawn) [Compound I-54, 3-(3-amino-2-oxo-1-(4-phenyl-3,4-dihydro-2H-benzo[b][1,4]oxazin-6-yl)-1,2-dihydrothieno[2,3-b]pyrazin-6-yl)-N-(4-(2-(2,4-difluorophenyl)-2-hydroxy-3-(1H-1,2,4-triazol-1-yl)propyl)piperazin-1-yl)-1,2,4-oxadiazole-5-carboxamide] | 6.47 | >10 | >10 | 0.6 (≈ 0.485 µg/mL) | 0.6 (≈ 0.485 µg/mL) | 7.13
9 | COC(=O)c1c(C(=O)NC2CCN(CC(O)(Cn3cncn3)c3ccc(F)cc3F)CC2)sc2nc(N)c(=O)n(-c3ccc4c(c3)N(c3ccccc3)CCO4)c12 (stereo not drawn) [Compound I-55, methyl 3-amino-6-((1-(2-(2,4-difluorophenyl)-2-hydroxy-3-(1H-1,2,4-triazol-1-yl)propyl)piperidin-4-yl)carbamoyl)-2-oxo-1-(4-phenyl-3,4-dihydro-2H-benzo[b][1,4]oxazin-6-yl)-1,2-dihydrothieno[2,3-b]pyrazine-7-carboxylate] | 6.50 |  | >10 | 9 (≈ 7.18 µg/mL) | 9 (≈ 7.18 µg/mL) | 6.50
10 | CC(O)c1c(C(=O)NC2CCN(CC(O)(Cn3cncn3)c3ccc(F)cc3F)CC2)sc2nc(N)c(=O)n(-c3ccc4ccn(-c5ccccc5)c4c3)c12 (stereo not drawn) [Compound I-56, 3-amino-N-(1-(2-(2,4-difluorophenyl)-2-hydroxy-3-(1H-1,2,4-triazol-1-yl)propyl)piperidin-4-yl)-7-(1-hydroxyethyl)-2-oxo-1-(1-phenyl-1H-indol-6-yl)-1,2-dihydrothieno[2,3-b]pyrazine-6-carboxamide] | 6.64 |  | >10 | 3 (≈ 2.3 µg/mL) | 3 (≈ 2.3 µg/mL) | 7.19
11 | Nc1nc2sc(CNC3CCN(C[C@@](O)(Cn4cncn4)c4ccc(F)cc4F)CC3)cc2n(-c2ccc3c(c2)N(c2ccccc2)CCO3)c1=O [Compound I-62, (R)-3-amino-6-(((1-(2-(2,4-difluorophenyl)-2-hydroxy-3-(1H-1,2,4-triazol-1-yl)propyl)piperidin-4-yl)amino)methyl)-1-(4-phenyl-3,4-dihydro-2H-benzo[b][1,4]oxazin-6-yl)thieno[2,3-b]pyrazin-2(1H)-one] | 6.37 |  | 10.6 | 3 (≈ 2.18 µg/mL) | 3 (≈ 2.18 µg/mL) | 6.63
12 | Nc1nc2sc(C(=O)NC3CCN(CCCC(O)(Cn4cncn4)c4ccc(F)cc4F)CC3)cc2n(-c2ccc3c(c2)N(c2ccccc2)CCO3)c1=O (stereo not drawn) [Compound I-64, 3-amino-N-(1-(4-(2,4-difluorophenyl)-4-hydroxy-5-(1H-1,2,4-triazol-1-yl)pentyl)piperidin-4-yl)-2-oxo-1-(4-phenyl-3,4-dihydro-2H-benzo[b][1,4]oxazin-6-yl)-1,2-dihydrothieno[2,3-b]pyrazine-6-carboxamide] | 7.71 |  | 2 | 3.12 (≈ 2.4 µg/mL) | 3.13 (≈ 2.4 µg/mL) | 9.05
13 | Nc1nc2sc(CNCC3CCN(CC(O)(Cn4cncn4)c4ccc(F)cc4F)CC3)cc2n(-c2ccc3c(c2)N(c2ccccc2)CCO3)c1=O (stereo not drawn) [Compound I-67, 3-amino-6-((((1-(2-(2,4-difluorophenyl)-2-hydroxy-3-(1H-1,2,4-triazol-1-yl)propyl)piperidin-4-yl)methyl)amino)methyl)-1-(4-phenyl-3,4-dihydro-2H-benzo[b][1,4]oxazin-6-yl)thieno[2,3-b]pyrazin-2(1H)-one] | 6.30 |  | 4.7 | 2.25 (≈ 1.66 µg/mL) | 2.25 (≈ 1.66 µg/mL) | 6.40
14 | Nc1nc2sc(C(=O)N[C@@H]3CCN(CC[C@@](O)(Cn4cncn4)c4ccc(F)cc4F)C3)cc2n(-c2ccc3c(c2)N(c2ccccc2)CCO3)c1=O [Compound I-70, 3-amino-N-((R)-1-((S)-3-(2,4-difluorophenyl)-3-hydroxy-4-(1H-1,2,4-triazol-1-yl)butyl)pyrrolidin-3-yl)-2-oxo-1-(4-phenyl-3,4-dihydro-2H-benzo[b][1,4]oxazin-6-yl)-1,2-dihydrothieno[2,3-b]pyrazine-6-carboxamide] | 8.54 |  | 1.5 | 5.75 (≈ 4.25 µg/mL) | 5.75 (≈ 4.25 µg/mL) | 9.52

Reference: US20240424113A1, “CONJUGATES COMPRISING ANTIFUNGALS AND HEAT SHOCK PROTEIN 90 (HSP90) INHIBITORS AND METHODS OF USE THEREOF” (Bright Angel Therapeutics Inc., priority 2021, published 2024)
